Results on 3 molecules are retold here after ChEMBL document CHEMBL4177650, “Synthesis and biological evolution of hydrazones derived from 4-(trifluoromethyl)benzohydrazide” (Bioorg Med Chem Lett, 2017).

The structures appear in SMILES notation. pIC50: −log10 of the molar value. In brackets after ≈: the same amount, converted by molar mass. Activity calls are given as the source filed them. The rule behind the calls is not given here.

Data set [1] concerns MONO-MAC-6. As to the kind of experiment: Cytostatic activity against human MONO-MAC-6 cells incubated overnight followed by compound wash measured after 72 hrs by MTT assay. In kind it is ADME, cell-based. To be noted: MONO-MAC-6, 72 h.
The nature of data set [2]: Cytotoxicity against mouse bone marrow macrophages after overnight incubation by MTT assay. To be noted: BMDM. A general note: Formazan colour is commonly taken as a measure of viable cells.
For data set [3], the system named is Mycobacterium kansasii. Put plainly: Antimycobacterial activity against Mycobacterium kansasii 6509/80 after 14 days by micromethod. In kind it is functional. Conditions: 6509/80, 336 h.
A short description of data set [4]: Solubility of the compound in Mueller-Hinton broth. The class given is physicochemical.
For data set [5], the system named is Mycobacterium kansasii. Put plainly: Antimycobacterial activity against Mycobacterium kansasii 6509/96 after 21 days by micromethod. In kind it is functional. Conditions: 6509/96, 504 h.
Data set [6] in a line: Selectivity index, ratio of IC50 for human HepG2 cells to MIC for Mycobacterium tuberculosis H37Rv 331/88. Conditions: read-out: Selectivity Index. In kind it is toxicity.
The subject of data set [7] is Mycobacterium avium. Put plainly: Antimycobacterial activity against Mycobacterium avium 330/88 after 21 days by micromethod. The class given is functional. Conditions: 330/88, 504 h.
Data set [8] has as its system Mycobacterium tuberculosis. Put plainly: Antimycobacterial activity against Mycobacterium tuberculosis H37Rv 331/88 after 14 days by micromethod. The class given is functional. Conditions: H37Rv 331/88, 336 h.
Data set [9] concerns Mycobacterium kansasii. As to the kind of experiment: Antimycobacterial activity against Mycobacterium kansasii 6509/96 after 7 days by micromethod. To be noted: 6509/96, 168 h. The class given is functional.
Data set [10] deals with Mycobacterium kansasii. Put plainly: Antimycobacterial activity against Mycobacterium kansasii 6509/80 after 21 days by micromethod. To be noted: 6509/80, 504 h. In kind it is functional.
Data set [11] deals with HepG2. Put plainly: Cytostatic activity against human HepG2 cells incubated overnight followed by compound wash measured after 72 hrs by MTT assay. The class given is ADME, cell-based. Conditions: HepG2, 72 h.
Data set [12] concerns HepG2. Put plainly: Cytotoxicity against human HepG2 cells after overnight incubation by MTT assay. The class given is cell-based.
Data set [13] concerns MONO-MAC-6. As to the kind of experiment: Cytotoxicity against human MONO-MAC-6 cells after overnight incubation by MTT assay. The class given is functional, cell-based.
Data set [14] relates to Mycobacterium tuberculosis. Put plainly: Antimycobacterial activity against Mycobacterium tuberculosis H37Rv 331/88 after 21 days by micromethod. In kind it is functional. Conditions: H37Rv 331/88, 504 h.
Data set [15] relates to Mycobacterium avium. As to the kind of experiment: Antimycobacterial activity against Mycobacterium avium 330/88 after 14 days by micromethod. The class given is functional. To be noted: 330/88, 336 h.
Data set [16] has as its system Mycobacterium kansasii. Put plainly: Antimycobacterial activity against Mycobacterium kansasii 6509/96 after 14 days by micromethod. The class given is functional. To be noted: 6509/96, 336 h.
Data set [17] has as its system Mycobacterium kansasii. Put plainly: Antimycobacterial activity against Mycobacterium kansasii 6509/80 after 7 days by micromethod. In kind it is functional. Conditions: 6509/80, 168 h.
Data set [18] relates to Enterococcus faecalis. Put plainly: Antibacterial activity against gram-positive Enterococcus faecalis J 14365/08 after 48 hrs by microdilution broth method. The class given is functional. Conditions: J 14365/08, 48 h.
The subject of data set [19] is Candida tropicalis. As to the kind of experiment: Antifungal activity against Candida tropicalis 156 after 24 hrs by microdilution broth method. The class given is functional. Conditions: Candida tropicalis, 156, 24 h. A general note: Broth dilution looks for growth in wells or tubes with falling amounts of substance.
For data set [20], the system named is Enterococcus faecalis. Put plainly: Antibacterial activity against gram-positive Enterococcus faecalis J 14365/08 after 24 hrs by microdilution broth method. In kind it is functional. Conditions: J 14365/08, 24 h.
The subject of data set [21] is Pichia kudriavzevii. As to the kind of experiment: Antifungal activity against Candida krusei E28 after 48 hrs by microdilution broth method. In kind it is functional. To be noted: E28, 48 h.
Data set [22] deals with Klebsiella pneumoniae. Put plainly: Antibacterial activity against gram-negative Klebsiella pneumoniae D 11750/08 after 24 to 48 hrs by microdilution broth method. The class given is functional, organism-based.
Data set [23] deals with Trichophyton mentagrophytes. Put plainly: Antifungal activity against Trichophyton mentagrophytes 445 after 120 hrs by microdilution broth method. To be noted: Trichophyton mentagrophytes, 445, 120 h. In kind it is functional.
Another data set has as its system Pseudomonas aeruginosa. As to the kind of experiment: Antibacterial activity against gram-negative Pseudomonas aeruginosa CCM 1961 after 48 hrs by microdilution broth method. The class given is functional, organism-based.
The test system of data set [24] is Escherichia coli. As to the kind of experiment: Antibacterial activity against gram-negative Escherichia coli CCM 4517 after 48 hrs by microdilution broth method. In kind it is functional. To be noted: CCM 4517, 48 h.
The subject of data set [25] is Nakaseomyces glabratus. As to the kind of experiment: Antifungal activity against Candida glabrata 20/I after 48 hrs by microdilution broth method. In kind it is functional.
Data set [26] deals with Trichophyton mentagrophytes. As to the kind of experiment: Antifungal activity against Trichophyton mentagrophytes 445 after 72 hrs by microdilution broth method. The class given is functional. Conditions: Trichophyton mentagrophytes, 445, 72 h.
In data set [27] the test system is Staphylococcus epidermidis. As to the kind of experiment: Antibacterial activity against gram-positive Staphylococcus epidermidis H 6966/08 after 24 hrs by microdilution broth method. In kind it is functional. To be noted: H 6966/08, 24 h.
For data set [28], the system named is Staphylococcus aureus. Put plainly: Antibacterial activity against gram-positive methicillin-resistant Staphylococcus aureus H 5996/08 after 24 hrs by microdilution broth method. In kind it is functional. Conditions: H 5996/08, 24 h.
Data set [29] relates to Staphylococcus aureus. As to the kind of experiment: Antibacterial activity against gram-positive methicillin-resistant Staphylococcus aureus H 5996/08 after 48 hrs by microdilution broth method. The class given is functional. To be noted: H 5996/08, 48 h.
For the next data set, the system named is Aspergillus fumigatus. As to the kind of experiment: Antifungal activity against Aspergillus fumigatus 231 after 24 to 48 hrs by microdilution broth method. In kind it is functional, organism-based.
Data set [30] has as its system Staphylococcus aureus. Put plainly: Antibacterial activity against gram-positive Staphylococcus aureus CCM 4516/08 after 24 hrs by microdilution broth method. In kind it is functional. Conditions: CCM 4516/08, 24 h.
Data set [31] has as its system Nakaseomyces glabratus. As to the kind of experiment: Antifungal activity against Candida glabrata 20/I after 24 hrs by microdilution broth method. In kind it is functional.
Data set [32] has as its system Klebsiella pneumoniae. Put plainly: Antibacterial activity against extended spectrum beta-lactamase-positive Klebsiella pneumoniae J 14368/08 after 24 to 48 hrs by microdilution broth method. In kind it is functional, organism-based.
In data set [33] the test system is Staphylococcus aureus. As to the kind of experiment: Antibacterial activity against gram-positive Staphylococcus aureus CCM 4516/08 after 48 hrs by microdilution broth method. In kind it is functional. Conditions: CCM 4516/08, 48 h.
Data set [34] relates to Candida tropicalis. As to the kind of experiment: Antifungal activity against Candida tropicalis 156 after 48 hrs by microdilution broth method. The class given is functional. To be noted: Candida tropicalis, 156, 48 h.
A further data set has as its system Lichtheimia corymbifera. As to the kind of experiment: Antifungal activity against Absidia corymbifera 272 after 24 to 48 hrs by microdilution broth method. The class given is functional, organism-based.
The next data set has as its system Candida albicans. As to the kind of experiment: Antifungal activity against Candida albicans ATCC 44859 after 24 to 48 hrs by microdilution broth method. In kind it is functional, organism-based.
Another data set has as its system Trichosporon asahii. Put plainly: Antifungal activity against Trichosporon asahii 1188 after 24 to 48 hrs by microdilution broth method. The class given is functional, organism-based.
Data set [35] concerns Escherichia coli. As to the kind of experiment: Antibacterial activity against gram-negative Escherichia coli CCM 4517 after 24 hrs by microdilution broth method. In kind it is functional. To be noted: CCM 4517, 24 h.
Data set [36] concerns Pichia kudriavzevii. As to the kind of experiment: Antifungal activity against Candida krusei E28 after 24 hrs by microdilution broth method. In kind it is functional. Conditions: E28, 24 h.
For data set [37], the system named is Staphylococcus epidermidis. As to the kind of experiment: Antibacterial activity against gram-positive Staphylococcus epidermidis H 6966/08 after 48 hrs by microdilution broth method. In kind it is functional. To be noted: H 6966/08, 48 h.

For orientation: pIC50 means −log10 of the IC50, conventionally taken in molar units. For orientation: MIC means the least concentration at which growth counts as inhibited. Read a low MIC as greater potency. Turning to `CC12CCC(C/C1=N\NC(=O)c1ccc(C(F)(F)F)cc1)C2(C)C` (stereo not drawn), the pIC50 (in the data set on MONO-MAC-6 [1]; in data set [2]; with HepG2 [11]; in the data set with HepG2 [12]; in the data set with MONO-MAC-6 [13]) was < 4.00 throughout. In addition, the MIC was > 250 µM against Mycobacterium kansasii [3]; > 250 µM in the data set with Mycobacterium kansasii [5]; > 250 µM with Mycobacterium avium [7]; 4 µM (≈ 1.35 µg/mL) in data set [8]; > 250 µM in the data set on Mycobacterium kansasii [9]; > 250 µM in the data set on Mycobacterium kansasii [10]. Besides, the MIC in data set [14] is 4 µM (≈ 1.35 µg/mL); against Mycobacterium avium [15], > 250 µM; with Mycobacterium kansasii [16] it was > 250 µM; against Mycobacterium kansasii [17], > 250 µM. The solubility result in data set [4] was “Insoluble”. Besides, in [6], the selectivity ratio is > 25.
Regarding `O=C(N/N=C/c1ccc(Br)cc1)c1ccc(C(F)(F)F)cc1`, the solubility result in [4] is “Insoluble”.
On to `O=C(N/N=C/c1ccc(O)cc1)c1ccc(C(F)(F)F)cc1`, for which the MIC against Enterococcus faecalis [18] is > 250 µM; against Candida tropicalis [19] it was > 125 µM; in the data set on Enterococcus faecalis [20] it was > 250 µM; in the data set with Pichia kudriavzevii [21], > 125 µM; in the data set on Mycobacterium kansasii [3] it was 125 µM (≈ 38.5 µg/mL); against Mycobacterium kansasii [5], 500 µM (≈ 154 µg/mL). In addition, the MIC in data set [23] was > 125 µM; against Escherichia coli [24] it was > 250 µM; in the data set on Nakaseomyces glabratus [25], > 125 µM; in data set [26], > 125 µM; in [27], 125 µM (≈ 38.5 µg/mL); against Staphylococcus aureus [28], 250 µM (≈ 77.1 µg/mL). Further, the MIC against Mycobacterium avium [7] amounted to 500 µM (≈ 154 µg/mL); in data set [8] it was 125 µM (≈ 38.5 µg/mL); in the data set on Mycobacterium kansasii [9], 250 µM (≈ 77.1 µg/mL); against Staphylococcus aureus [29] it was 250 µM (≈ 77.1 µg/mL); with Mycobacterium kansasii [10], 125 µM (≈ 38.5 µg/mL); in the data set with Staphylococcus aureus [30], 250 µM (≈ 77.1 µg/mL). Also, the minimum inhibitory concentration (MIC) in the data set on Nakaseomyces glabratus [31] is > 125 µM; against Staphylococcus aureus [33], 250 µM (≈ 77.1 µg/mL); against Candida tropicalis [34], > 125 µM; in [14], 125 µM (≈ 38.5 µg/mL); in the data set with Escherichia coli [35], > 250 µM; in the data set with Pichia kudriavzevii [36] it was > 125 µM. In addition, the MIC with Mycobacterium avium [15] turned out to be 250 µM (≈ 77.1 µg/mL); in the data set on Mycobacterium kansasii [16], 500 µM (≈ 154 µg/mL); in data set [37] it was 125 µM (≈ 38.5 µg/mL); against Mycobacterium kansasii [17], 62.5 µM (≈ 19.3 µg/mL). In addition, the outcome in the data set on Klebsiella pneumoniae [22], in the data set on Pseudomonas aeruginosa, in the data set with Aspergillus fumigatus, with Klebsiella pneumoniae [32], in the data set on Lichtheimia corymbifera and in the data set on Candida albicans was inactive. In the data set on Trichosporon asahii, the outcome was inactive.
